Measured values as given in patent US12630579B2, “Proteolysis targeting compound with tissue targeting capability and use thereof” (TAI BI DI PHARMACEUTICAL TECHNOLOGY (SHIJIAZHUANG) CO. LTD, priority 2020, dated 2026).
Converted amounts (≈) assume the structure as drawn.

How the values were obtained:
[1] = Solubility test (equilibrium solubility in deionized water, HPLC); format: physicochemical; conditions: thermodynamic from solid, 37° C.
Procedure: Series solutions of 1 nM/10 nM/100 nM/100 nM/1 uM/10 uM/100 uM/1 mM were prepared according to following steps: WG compounds to be tested in the present application and corresponding compounds of structure A were respectively weighed, dissolved in deionized water, and oscillated at 37° C. for 12 hours to reach dissolution equilibrium. The resulted solutions were filtered 3 times with a filter membrane, and filtrates were collected. Actual concentrations of the compounds in the solutions were determined with HPLC. A curve of actual concentration of the solution—planned concentration of the solution was drawn, and the turning point of the curve indicated the equilibrium concentration of the compounds.

[2] = test system: Liver cancer cells (HUH-7); experiment: Transmembrane test; format: in vitro ADME; conditions: HUH-7, 24 hours, arithmetic mean over concentrations
Procedure: (§1) Liver cancer cells (HUH-7) were seeded in a 6-well plate at a concentration of 4*10^5 cells/mL, 2 mL per well, and cultured overnight until the cells were adherent to the wall.
The next day, compound solutions were prepared as follows: WG compounds of present application and corresponding compounds of structure A were respectively weighed, prepared with pure DMSO into mother solutions of high concentration, then gradiently diluted to obtain compound solutions of 10 uM/30 uM/100 uM/150 uM/300 uM in 10% DMSO, and shaken to mix well.
When the cells were adherent to the wall under microscope observation, 200 uL of compound solutions were added to each well with a ratio of compound solution to culture medium at 1:10.
After culture for 24 hours, the culture medium was sucked out with a pipette, and the wells were then washed five times with phosphate buffer, 2 mL each time for 30 seconds, to ensure there were no compound residues in the environment of the cells. Solutions in the wells were thoroughly sucked up, and 150 uL RIPA Lysis Buffer was added into each well. Then the culture was continued on ice for 30 min to lyse the cells. Lysates were collected and centrifuged at […] for 1 h, and supernatants were collected and characterized with HPLC to determine the concentration of the compounds therein.
The solubility and changes of transmembrane efficiency of WG compounds relative to corresponding compounds of structure A were analyzed and calculated. An arithmetic mean value of transmembrane efficiency changes under different concentrations was calculated, thereby obtaining a reference value of the difference of transmembrane efficiency between two groups of compounds.

[3] = test system: Liver cancer cells (HUH-7); experiment: Cell growth inhibition test (cck-8); format: cell-based; conditions: HUH-7, 72 hours
Procedure: Liver cancer cells (HUH-7) were seeded in a 96-well plate at a concentration of 2*10^4 cells/mL, 100 uL per well, and cultured overnight.
The next day, the cells were observed microscope to ensure adherence. Compound solutions were prepared as follows: WG compounds of present application and corresponding compounds of structure A were respectively weighed, prepared with pure DMSO into mother solutions of high concentration, then gradiently diluted to obtain compound solutions of 10 nM/100 nM/300 nM/1000 nM/3000 nM in 10% DMSO, and shaken to mix well.
Positive drug solutions in the control group were prepared with the same solvent and method, and only a single dosage was required. In this test, the positive drug solution is 1 uM lenvatinib.
After solution preparation was completed, 10 uL of compound solutions were added into each well of the 96-well plate, three duplicates for each dosage. The plate was gently shaken to allow the cells to repeatedly contact with the compound solutions, and then the plate was placed in an incubator to culture for 72 hours. 72 hours later, the plate was taken out and 10 uL cck-8 reagent was added into each well and shaken gently to mix well. Then the plate was placed in an incubator to culture for two hours. Two hours later, the plate was taken out and analyzed with a microplate reader to measure the absorbance of each well at a wavelength of 450 nm.
A graph can be drawn according to the gradient of concentrations, and the results can be compared directly.

[4] = test system: target protein in liver cancer cells (HUH-7); experiment: Proteolysis test (Western blot of target protein); format: cell-based; set-up: key to Protein content (blackness of experimental group / blank control group): blot blackness of treated / blank control (fraction of control); conditions: HUH-7, 24 hours
Procedure: as §1
The next day, compound solutions were prepared as follows: WG compounds of present application and corresponding compounds of structure A were respectively weighed, prepared with pure DMSO into mother solutions of high concentration, then gradiently diluted to obtain compound solutions of 10 nM/30 nM/100 nM/300 nM/1000 nM/3000 nM in 10% DMSO, and shaken to mix well. 200 uL of compound solutions were added to each well with a ratio of compound solution to culture medium at 1:10.
After culture for 24 hours, the culture medium was sucked out with a pipette, and then the wells were washed 3 times with PBS. Solutions in the wells were thoroughly sucked up, and 150 uL RIPA Lysis Buffer was added into each well. Then the culture was continued on ice for 30 min to lyse the cells.
Lysates were collected and centrifuged at 16000 rpm for 10 minutes. Supernatants were collected and the total protein content was normalized with a BCA kit to determine target protein contents with Western blot.
The results were analyzed with ImageJ. Blackness of each strip was measured and the protein was quantified for comparison analysis according to formula: Protein content=blackness value of the experimental group/blackness value of the blank control group.

Row | Structure (SMILES) | solubility thermodynamic at 12 h [1] [µM] | Transmembrane efficiency relative to corresponding compound of structure A (WGint4) [2] | IC50 [3] [nM] | DC50 [4] [nM] | Protein content (blackness of experimental group / blank control group) ([4]; dosage 1 nM) | Protein content (blackness of experimental group / blank control group) ([4]; dosage 10 nM) | Protein content (blackness of experimental group / blank control group) ([4]; dosage 30 nM) | Protein content (blackness of experimental group / blank control group) ([4]; dosage 100 nM) | Protein content (blackness of experimental group / blank control group) ([4]; dosage 300 nM) | IC50 ([3]; Homo sapiens) [nM] | solubility thermodynamic ([1]; 12 hours) [µM]
1 | COc1cc2nccc(Oc3ccc(NC(=O)NC4CC4)c(Cl)c3)c2cc1C(=O)NCCCCCCC(=O)N[C@H](C(=O)N1C[C@H](OP(=O)(O)OCCCCCCCCCC(=O)NC(CNC(=O)CCCCCCOC2OC(CO)C(O)C(O)C2NC(C)=O)CNC(=O)CCCCCCOC2OC(CO)C(O)C(O)C2NC(C)=O)C[C@H]1C(=O)NCc1ccc(-c2scnc2C)cc1)C(C)(C)C (some centres unmarked) [WG-2(00300629)] | 603 (≈ 1180 µg/mL) | WG-2 is about 8.3 times | 29.5 | 21.4 | – | – | – | – | – | – | –
2 | COc1cc2nccc(Oc3ccc(NC(=O)NC4CC4)c(Cl)c3)c2cc1C(=O)NCCCCCCC(=O)N[C@H](C(=O)N1C[C@H](OP(=O)(O)OCCCCCCCCCC(=O)NC(COCCC(=O)NCCCNC(=O)CCCCOC2OC(CO)C(O)C(O)C2NC(C)=O)(COCCC(=O)NCCCNC(=O)CCCCOC2OC(CO)C(O)C(O)C2NC(C)=O)COCCC(=O)NCCCNC(=O)CCCCOC2OC(CO)C(O)C(O)C2NC(C)=O)C[C@H]1C(=O)NCc1ccc(-c2scnc2C)cc1)C(C)(C)C (some centres unmarked) [WG-1 (00300639)] | 677 (≈ 1770 µg/mL) | about 9.2 times | 21.3 | 18 | 0.93 | 0.72 | 0.31 | 0.16 | 0.13 | – | –
3 | COc1cc2c(Oc3ccc(NC(=O)C4(C(=O)Nc5ccc(F)cc5)CC4)cc3)ccnc2cc1OCCCOCCCOCCC(=O)N[C@H](C(=O)N1C[C@H](OP(=O)(O)OCCCCCCCCCC(=O)NC(COCCC(=O)NCCCNC(=O)CCCCOC2OC(CO)C(O)C(O)C2NC(C)=O)(COCCC(=O)NCCCNC(=O)CCCCOC2OC(CO)C(O)C(O)C2NC(C)=O)COCCC(=O)NCCCNC(=O)CCCCOC2OC(CO)C(O)C(O)C2NC(C)=O)C[C@H]1C(=O)NCc1ccc(-c2scnc2C)cc1)C(C)(C)C (some centres unmarked) [WG-4(00500639)] | 476 (≈ 1300 µg/mL) | WG-4 is about 17.1 times | – | – | – | – | – | – | – | – | –
4 | COc1cc2nccc(Oc3ccc(NC(=O)NC4CC4)c(Cl)c3)c2cc1C(=O)NCCCCCCC(=O)N[C@H](C(=O)N1C[C@H](O)C[C@H]1C(=O)NCc1ccc(-c2scnc2C)cc1)C(C)(C)C [WGint4 (003006)] | 31 (≈ 30 µg/mL) | – | – | 150 | 0.97 | 0.97 | 0.84 | 0.65 | 0.22 | 211 | –
5 | COc1cc2c(Oc3ccc(NC(=O)C4(C(=O)Nc5ccc(F)cc5)CC4)cc3F)ccnc2cc1OCCCOCCCOCCC(=O)N[C@H](C(=O)N1C[C@H](OP(=O)(O)OCCCCCCCCCC(=O)NC(COCCC(=O)NCCCNC(=O)CCCCOC2OC(CO)C(O)C(O)C2NC(C)=O)(COCCC(=O)NCCCNC(=O)CCCCOC2OC(CO)C(O)C(O)C2NC(C)=O)COCCC(=O)NCCCNC(=O)CCCCOC2OC(CO)C(O)C(O)C2NC(C)=O)C[C@H]1C(=O)NCc1ccc(-c2scnc2C)cc1)C(C)(C)C (some centres unmarked) [WG-5(00600639)] | 731 (≈ 2010 µg/mL) | WG-5 is about 11.5 times | – | – | – | – | – | – | – | – | –
6 | CC(=O)N[C@H]1[C@H](OCCCCC(=O)NCCCNC(=O)CCOCC(COCCC(=O)NCCCNC(=O)CCCCO[C@@H]2O[C@H](CO)[C@H](O)[C@H](O)[C@H]2NC(C)=O)(COCCC(=O)NCCCNC(=O)CCCCO[C@@H]2O[C@H](CO)[C@H](O)[C@H](O)[C@H]2NC(C)=O)NC(=O)CCCCCCCCCOP(=O)(O)O[C@@H]2C[C@@H](C(=O)NCc3ccc(-c4scnc4C)cc3)N(C(=O)[C@@H](NC(=O)COCCOCCN(C)C(=O)c3cc(Oc4ccc(NC(=O)Nc5ccc(Cl)c(C(F)(F)F)c5)cc4)ccn3)C(C)(C)C)C2)O[C@H](CO)[C@H](O)[C@@H]1O [WG-3(00400639)] | – | WG-3 is about 15 times | 79.9 | 81.4 | – | – | – | – | – | – | 255 (≈ 681 µg/mL)
